Data published in PubChem BioAssay (NCI).
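1) Cells in 96-well plates. 2) Compound, 48 h, 5 concentrations. 3) Linear interpolation between surrounding doses. 4) Unreached endpoint = highest concentration. At the GI50, growth is halved. TGI marks complete inhibition of growth.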

Columns and labels:
Assay in all cases: growth of human tumour cells (NCI), 48 h
[1] = test system: NCI-H460 lung
[2] = test system: IGROV1 ovarian
[3] = test system: SK-MEL-28 melanoma
[4] = test system: OVCAR-3 ovarian
[5] = test system: KM12 colon
[6] = test system: SNB-75 CNS
[7] = test system: UACC-62 melanoma
[8] = test system: SN12C renal
[9] = test system: HCT-15 colon
[10] = test system: MOLT-4 leukemia
[11] = test system: HOP-62 NSCLC
[12] = test system: U251 CNS
[13] = test system: RXF-631 renal
[14] = test system: UACC-257 melanoma
[15] = test system: SR leukemia
[16] = test system: K-562 leukemia
[17] = test system: RPMI-8226 leukemia
[18] = test system: RXF 393 renal
[19] = test system: OVCAR-5 ovarian
[20] = test system: A498 renal
[21] = test system: COLO 205 colon
[22] = test system: XF 498 CNS
[23] = test system: LXFL 529 NSCLC
[24] = test system: NCI-H226 lung
[25] = test system: OVCAR-4 ovarian
[26] = test system: HCT-116 colon
[27] = test system: SNB-19 CNS
[28] = test system: SF-539 CNS
[29] = test system: MALME-3M melanoma
[30] = test system: LOX IMVI melanoma
[31] = test system: SF-295 CNS
[32] = test system: CCRF-CEM leukemia
[33] = test system: NCI-H23 lung
[34] = test system: UO-31 renal
[35] = test system: A549 NSCLC
[36] = test system: HL-60(TB) leukemia
[37] = test system: HT29 colon
[38] = test system: NCI-H522 lung
[39] = test system: SK-MEL-5 melanoma
[40] = test system: SNB-78 CNS
[41] = test system: M19-MEL melanoma
[42] = test system: CAKI-1 renal
[43] = test system: SK-MEL-2 melanoma
[44] = test system: HOP-92 NSCLC
[45] = test system: KM20L2 colon
[46] = test system: DMS 114 small cell lung
[47] = test system: EKVX NSCLC
[48] = test system: M14 melanoma
[49] = test system: HCC-2998 colon
[50] = test system: SF-268 CNS
[51] = test system: SK-OV-3 ovarian
[52] = test system: TK-10 renal
[53] = test system: DLD-1 colon
[54] = test system: SW-620 colon
[55] = test system: ACHN renal
[56] = test system: HOP-18 NSCLC
[57] = test system: OVCAR-8 ovarian
[58] = test system: 786-0 renal
[59] = test system: DMS 273 small cell lung

In the case of `CCOc1ccc(/C=C/c2cc(OC)c(OC)c(OC)c2)cc1`, the TGI [1] is reported as over 29.6 µM, the TGI [2] is reported as over 93.8 µM and the TGI [3] is reported as over 100 µM. It also gave a TGI [4] of 1.88 µM, a TGI [5] of over 41.6 µM and a TGI [6] of over 64.1 µM. The TGI [7] was over 100 µM, the TGI [8] was over 28 µM and the TGI [9] was over 22.1 µM. The TGI [10] was 44.6 µM, the TGI [11] was 35.9 µM and the TGI [12] was 13.2 µM. It also gave a TGI [13] of over 38 µM, a TGI [14] of over 100 µM and a TGI [15] of over 100 µM. It also gave a TGI [16] of over 100 µM, a TGI [17] of over 100 µM and a GI50 [18] of 0.448 µM. It also gave a TGI [18] of 5 µM, a TGI [19] of over 100 µM and a TGI [20] of 30.4 µM. It also gave a TGI [21] of 2.5 µM, a TGI [22] of over 100 µM and a TGI [23] of 15.1 µM. It also gave a TGI [24] of over 26.1 µM, a TGI [25] of over 100 µM and a TGI [26] of 15.2 µM. For the same molecule, the TGI [27] was over 83.6 µM, the TGI [28] was 3.02 µM and the TGI [29] was 28.8 µM. It also gave a TGI [30] of over 100 µM, a TGI [31] of 16.9 µM and a TGI [32] of over 66.8 µM. It also gave a TGI [33] of over 45.6 µM, a TGI [34] of over 100 µM and a TGI [35] of over 100 µM. For the same molecule, the TGI [36] was 1.46 µM, the TGI [37] was over 100 µM and the TGI [38] was 2.21 µM. The TGI [39] was 14.6 µM, the TGI [40] was 0.85 µM and the TGI [41] was over 100 µM. The TGI [42] was 24.1 µM, the TGI [43] was 20.7 µM and the TGI [44] was 93.8 µM. The TGI [45] was 6.81 µM, the TGI [46] was 5.15 µM and the TGI [47] was over 100 µM. The TGI [48] was 5.29 µM, the TGI [49] was 6.32 µM and the TGI [50] was over 25.8 µM. The TGI [51] was over 30.2 µM, the TGI [52] was over 100 µM and the TGI [53] was over 100 µM. It also gave a TGI [54] of over 100 µM, a TGI [55] of over 64.8 µM and a TGI [56] of over 100 µM. The TGI [57] was over 100 µM and the TGI [58] was 37.4 µM.
`Cc1ccc(NC(=O)CC/C(CC(=O)C(C)(C)C)=N\NC(=O)C[n+]2ccccc2)cc1C` gave a TGI [1] of over 100 µM, a TGI [2] of over 100 µM and a TGI [3] of over 100 µM. For the same molecule, the TGI [4] was over 100 µM, the TGI [5] was over 100 µM and the TGI [6] was over 100 µM. It also gave a TGI [7] of over 100 µM, a TGI [8] of over 100 µM and a TGI [9] of over 100 µM. It also gave a TGI [10] of over 100 µM, a TGI [11] of over 100 µM and a TGI [12] of over 100 µM. For the same molecule, the TGI [14] was over 100 µM, the TGI [15] was over 100 µM and the TGI [16] was over 100 µM. The TGI [17] was over 100 µM, the TGI [18] was over 100 µM and the TGI [19] was over 100 µM. For the same molecule, the TGI [20] was over 100 µM, the TGI [21] was over 100 µM and the TGI [22] was over 100 µM. The TGI [23] was over 100 µM, the TGI [24] was over 100 µM and the TGI [25] was over 100 µM. It also gave a TGI [26] of over 100 µM, a TGI [27] of over 100 µM and a TGI [28] of over 100 µM. It also gave a TGI [29] of over 100 µM, a TGI [30] of over 100 µM and a TGI [31] of over 100 µM. The TGI [32] was over 100 µM, the TGI [33] was over 100 µM and the TGI [34] was over 100 µM. For the same molecule, the TGI [35] was over 100 µM, the TGI [36] was over 100 µM and the TGI [37] was over 100 µM. It also gave a TGI [38] of over 100 µM, a TGI [39] of over 100 µM and a TGI [40] of over 100 µM. For the same molecule, the TGI [41] was over 100 µM, the TGI [42] was over 100 µM and the TGI [43] was over 100 µM. It also gave a TGI [44] of over 100 µM, a TGI [45] of over 100 µM and a TGI [59] of over 100 µM. The TGI [46] was over 100 µM, the TGI [47] was over 100 µM and the TGI [48] was over 100 µM. It also gave a TGI [49] of over 100 µM, a TGI [50] of over 100 µM and a TGI [51] of over 100 µM. For the same molecule, the TGI [52] was over 100 µM, the TGI [54] was over 100 µM and the TGI [55] was over 100 µM. For the same molecule, the TGI [56] was over 100 µM, the TGI [57] was over 100 µM and the TGI [58] was over 100 µM.
`Cc1[nH]c2ccccc2c1CC/C(=N\Nc1ccccc1)c1ccccc1` was tested, and the TGI [1] was over 100 µM, the TGI [2] was over 100 µM and the TGI [3] was over 100 µM. The TGI [4] was over 100 µM, the TGI [5] was over 100 µM and the TGI [6] was over 100 µM. For the same molecule, the TGI [7] was over 100 µM, the TGI [9] was over 100 µM and the TGI [10] was over 100 µM. It also gave a TGI [11] of over 100 µM, a TGI [12] of over 100 µM and a TGI [13] of over 100 µM. It also gave a TGI [14] of over 100 µM, a TGI [16] of over 100 µM and a TGI [17] of over 100 µM. For the same molecule, the TGI [18] was over 100 µM, the TGI [19] was over 100 µM and the TGI [20] was over 100 µM. The TGI [22] was over 100 µM, the TGI [24] was over 100 µM and the TGI [25] was over 100 µM. The TGI [26] was over 100 µM, the TGI [28] was over 100 µM and the TGI [29] was over 100 µM. It also gave a TGI [31] of over 100 µM, a TGI [32] of over 100 µM and a TGI [33] of over 100 µM. For the same molecule, the TGI [34] was over 100 µM, the TGI [35] was over 100 µM and the TGI [36] was over 100 µM. For the same molecule, the TGI [37] was over 100 µM, the TGI [39] was over 100 µM and the TGI [40] was over 100 µM. For the same molecule, the TGI [42] was over 100 µM, the TGI [43] was over 100 µM and the TGI [45] was over 100 µM. It also gave a TGI [59] of over 100 µM, a TGI [47] of over 100 µM and a TGI [48] of over 100 µM. The TGI [49] was over 100 µM, the TGI [51] was over 100 µM and the TGI [52] was over 100 µM. It also gave a TGI [53] of over 100 µM, a TGI [54] of over 100 µM and a TGI [55] of over 100 µM. It also gave a TGI [57] of over 100 µM and a TGI [58] of over 100 µM.
